Reference: ChEMBL document CHEMBL5506041, “Identification of 1,3,4-Thiadiazolyl-Containing Thiazolidine-2,4-dione Derivatives as Novel PTP1B Inhibitors with Antidiabetic Activity” (J Med Chem, 2024)
The source made the active and inactive calls. The calls are words filed in the database; no cut-off is given here.

Key:
[1] = target: T1, Tyrosine-protein phosphatase non-receptor type 1 (Homo sapiens, UniProt P18031); assay: Inhibition of PTP1B (unknown origin) using DiFMUP as substrate incubated for 10 mins by fluorescence based analysis
T1 sequence (P18031 whole entry): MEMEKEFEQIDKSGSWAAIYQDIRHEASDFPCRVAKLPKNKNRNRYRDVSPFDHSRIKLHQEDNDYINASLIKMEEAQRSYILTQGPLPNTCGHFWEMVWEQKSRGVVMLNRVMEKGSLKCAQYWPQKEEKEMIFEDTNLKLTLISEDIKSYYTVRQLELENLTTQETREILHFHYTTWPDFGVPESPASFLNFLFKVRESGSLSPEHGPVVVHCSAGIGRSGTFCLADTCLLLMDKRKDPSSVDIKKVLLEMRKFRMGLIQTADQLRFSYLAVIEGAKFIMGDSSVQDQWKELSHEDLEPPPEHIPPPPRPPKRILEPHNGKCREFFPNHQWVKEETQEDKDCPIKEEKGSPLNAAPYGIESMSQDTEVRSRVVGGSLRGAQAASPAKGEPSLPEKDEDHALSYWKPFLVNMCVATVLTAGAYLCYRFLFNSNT

[2] = tested on: Mus musculus; assay: Hypoglycemic activity in streptozotocin-induced C57/6J mouse model assessed as reduction in fasting blood glucose level at 50 mg/kg, ip administered once a week and fasted for 12 hrs; type: functional, organism-based
[3] = target: T2, Tyrosine-protein phosphatase non-receptor type 1 (Homo sapiens) (UniProt P18031); assay: Potency index, ratio of lithocholic acid IC50 to test compound IC50 for inhibition of PTP1B (unknown origin) using DiFMUP as substrate incubated for 10 mins by fluorescence based analysis
T2 sequence (whole entry): T1 sequence (P18031 whole entry)

[4] = target: T2, Tyrosine-protein phosphatase non-receptor type 1 (Homo sapiens); assay: Reversible inhibition of PTP1B1 (unknown origin) upto 1 uM by Lineweaver-burk plot analysis
[5] = target: T2, Tyrosine-protein phosphatase non-receptor type 1 (Homo sapiens); assay: Noncompetitive inhibition of PTP1B1 (unknown origin) upto 1 uM by Lineweaver-burk plot analysis
[6] = tested on: L02; assay: Cytotoxicity activity against human L02 cells upto 32 uM by MTT assay; type: toxicity, cell-based; details: l02, 32 µM
[7] = tested on: HEK293; assay: Cytotoxicity activity against HEK293 cells upto 32 uM by MTT assay; type: toxicity, cell-based; details: human, hek293, 32 µM
[8] = tested on: HepG2; assay: Inhibition of insulin resistance in palmitic acid-induced human HepG2 cells assessed as upregulation of IRS1 expression incubated for 24 hrs followed by insulin addition for 10 mins; type: functional, cell-based; details: dose 2-20 µM
[9] = tested on: HepG2; assay: Inhibition of insulin resistance in palmitic acid-induced human HepG2 cells assessed as upregulation of AKT expression incubated for 24 hrs followed by insulin addition for 10 mins; type: functional, cell-based; details: dose 2-20 µM
[10] = tested on: Mus musculus; assay: Hypoglycemic activity in streptozotocin-induced C57/6J mouse model assessed as reduction in fasting blood glucose level at 25 to 50 mg/kg, ip administered once a week and fasted for 12 hrs; type: functional, organism-based; details: dose 25-50 mg/kg
[11] = tested on: Mus musculus; assay: Anti-diabetic activity in streptozotocin-induced C57/6J mouse model assessed as reduction in fasted blood glucose level at 50 mg/kg, ip preadministered with compound for 3 weeks followed by fasting for 12 hrs and measured after 120 mins post glucose administration by OGTT analysis; type: functional, organism-based; details: time 518.0 hrs
[12] = tested on: Mus musculus; assay: Anti-diabetic activity in streptozotocin-induced C57/6J mouse model assessed as reduction in total cholesterol level in serum at 25 to 50 mg/kg, ip administered for 4 weeks; type: functional, organism-based; details: dose 25-50 mg/kg
[13] = tested on: Mus musculus; assay: Anti-diabetic activity in streptozotocin-induced C57/6J mouse model assessed as reduction in triglyceride level in serum at 25 to 50 mg/kg, ip administered for 4 weeks; type: functional, organism-based; details: dose 25-50 mg/kg

Structure (SMILES) | IC50 [1] [nM] | other results
O=C1NC(=O)/C(=C/c2ccc(C(=O)Nc3nnc(SCc4cc(C(F)(F)F)cc(C(F)(F)F)c4)s3)cc2)S1 | 1730 | –
O=C1NC(=O)/C(=C/c2ccc(C(=O)Nc3nnc(SCc4ccc(-c5ccccc5)cc4)s3)cc2)S1 | 1470 | –
C[C@H]1O[C@H](O[C@H]2[C@H](O)[C@@H](O)[C@@H](O[C@H]3[C@H](O)[C@@H](O)C(O)O[C@@H]3CO)O[C@@H]2CO)[C@H](O)[C@@H](O)[C@@H]1N[C@H]1C=C(CO)[C@@H](O)[C@H](O)[C@H]1O (some centres undefined) | – | Activity [2]: Active
O=C1NC(=O)/C(=C/c2ccc(C(=O)Nc3nnc(SCc4ccc5ccccc5c4)s3)cc2)S1 | 3770 | –
Cc1ccc(CSc2nnc(NC(=O)c3ccc(/C=C4/SC(=O)NC4=O)cc3)s2)cc1 | 880 | –
O=C1NC(=O)/C(=C\c2ccc(C(=O)Nc3nnc(SCc4ccccc4F)s3)cc2)S1 | 1850 | –
O=C1NC(=O)/C(=C\c2ccc(C(=O)Nc3nnc(SCc4cccc(C(F)(F)F)c4)s3)cc2)S1 | 1070 | –
COc1cccc(CSc2nnc(NC(=O)c3ccc(/C=C4/SC(=O)NC4=O)cc3)s2)c1 | 3220 | –
N#Cc1ccccc1CSc1nnc(NC(=O)c2ccc(/C=C3/SC(=O)NC3=O)cc2)s1 | 2170 | –
C[C@H](CCC(=O)O)[C@H]1CC[C@H]2[C@@H]3CC[C@@H]4C[C@H](O)CC[C@]4(C)[C@H]3CC[C@]12C [LITHOCHOLIC ACID] | 9620 | –
O=C1NC(=O)/C(=C/c2ccc(C(=O)Nc3nnc(SCc4ccc(F)cc4Cl)s3)cc2)S1 | 1070 | –
O=C1NC(=O)/C(=C/c2ccc(C(=O)Nc3nnc(SCc4ccc(C(F)(F)F)cc4)s3)cc2)S1 | 910 | –
O=C1NC(=O)/C(=C/c2ccc(C(=O)Nc3nnc(SCc4ccc(F)cc4F)s3)cc2)S1 | 1240 | –
Cc1cccc(CSc2nnc(NC(=O)c3ccc(/C=C4/SC(=O)NC4=O)cc3)s2)c1 | 3850 | –
O=C1NC(=O)/C(=C\c2ccc(C(=O)Nc3nnc(SCc4ccccc4OC(F)(F)F)s3)cc2)S1 | 1320 | –
COC(=O)c1ccccc1CSc1nnc(NC(=O)c2ccc(/C=C3/SC(=O)NC3=O)cc2)s1 | 1210 | –
O=C1NC(=O)/C(=C\c2ccc(C(=O)Nc3nnc(SCc4ccccc4)s3)cc2)S1 | 1270 | –
O=C1NC(=O)/C(=C\c2ccc(C(=O)Nc3nnc(SCc4ccccc4Br)s3)cc2)S1 | 1870 | –
O=C1NC(=O)/C(=C\c2ccc(C(=O)Nc3nnc(SCc4ccc(F)cc4)s3)cc2)S1 | 1840 | –
CS(=O)(=O)c1ccc(CSc2nnc(NC(=O)c3ccc(/C=C4\SC(=O)NC4=O)cc3)s2)cc1 | 1410 | –
O=C1NC(=O)/C(=C\c2ccc(C(=O)Nc3nnc(SCc4ccccc4Cl)s3)cc2)S1 | 2910 | –
O=C1NC(=O)/C(=C\c2ccc(C(=O)Nc3nnc(SCc4ccccc4C(F)(F)F)s3)cc2)S1 | 1180 | –

Structure (SMILES) | IC50 [1] [nM] | other results
O=C1NC(=O)/C(=C\c2ccc(C(=O)Nc3nnc(SCc4ccc(OC(F)(F)F)cc4)s3)cc2)S1 | 890 | –
O=C1NC(=O)/C(=C\c2ccc(C(=O)Nc3nnc(SCc4ccccc4[N+](=O)[O-])s3)cc2)S1 | 4090 | –
O=C1NC(=O)/C(=C\c2ccc(C(=O)Nc3nnc(SCc4cccc(F)c4)s3)cc2)S1 | 2080 | –
O=C1NC(=O)/C(=C/c2ccc(C(=O)Nc3nnc(SCc4ccc(F)c(Cl)c4)s3)cc2)S1 | 820 | –
O=C1NC(=O)/C(=C\c2ccc(C(=O)Nc3nnc(SCc4cccc(Cl)c4)s3)cc2)S1 | 1640 | –
O=C1NC(=O)/C(=C\c2ccc(C(=O)Nc3nnc(SCc4ccc(Br)cc4)s3)cc2)S1 | 590 | –
Cc1ccccc1CSc1nnc(NC(=O)c2ccc(/C=C3/SC(=O)NC3=O)cc2)s1 | 4680 | –
O=C1NC(=O)/C(=C\c2ccc(C(=O)Nc3nnc(SCc4ccccc4-c4ccccc4)s3)cc2)S1 | 3560 | –
O=C1NC(=O)/C(=C\c2ccc(C(=O)Nc3nnc(SCc4cccc(Br)c4)s3)cc2)S1 | 890 | –
COC(=O)c1cccc(CSc2nnc(NC(=O)c3ccc(/C=C4/SC(=O)NC4=O)cc3)s2)c1 | 1120 | –
O=C1NC(=O)/C(=C\c2ccc(C(=O)Nc3nnc(SCc4ccc(Cl)cc4)s3)cc2)S1 | 1390 | –
COC(=O)c1ccc(CSc2nnc(NC(=O)c3ccc(/C=C4/SC(=O)NC4=O)cc3)s2)cc1 | 650 | –
O=C1NC(=O)/C(=C\c2ccc(C(=O)Nc3nnc(SCc4cccc(OC(F)(F)F)c4)s3)cc2)S1 | 1480 | –
N#Cc1ccc(CSc2nnc(NC(=O)c3ccc(/C=C4/SC(=O)NC4=O)cc3)s2)cc1 | 410 | Ratio IC50 [3]: 23.5; inhibition [4]: Active; inhibition [5]: Active; Activity [6]: Non-Toxic; Activity [7]: Non-Toxic; inhibition [8]: Dose-Dependent Effect; inhibition [9]: Dose-Dependent Effect; Activity [10]: Active; Activity [11]: Active; Activity [12]: Active; Activity [13]: Active
O=C1NC(=O)/C(=C/c2ccc(C(=O)Nc3nnc(SCc4ccc(F)c(F)c4)s3)cc2)S1 | 750 | –
O=C1NC(=O)/C(=C/c2ccc(C(=O)Nc3nnc(SCc4ccc(F)c(F)c4F)s3)cc2)S1 | 1130 | –
CC(C)(C)c1ccc(CSc2nnc(NC(=O)c3ccc(/C=C4\SC(=O)NC4=O)cc3)s2)cc1 | 1350 | –
O=C1NC(=O)/C(=C\c2ccc(C(=O)Nc3nnc(SCc4cccc([N+](=O)[O-])c4)s3)cc2)S1 | 3760 | –
N#Cc1cccc(CSc2nnc(NC(=O)c3ccc(/C=C4/SC(=O)NC4=O)cc3)s2)c1 | 610 | –
O=C1NC(=O)/C(=C\c2ccc(C(=O)Nc3nnc(SCc4ccc([N+](=O)[O-])cc4)s3)cc2)S1 | 1820 | –
O=C1NC(=O)/C(=C/c2ccc(C(=O)Nc3nnc(SCc4ccc5ncccc5c4)s3)cc2)S1 | 980 | –
